In this assay the test system is 242566-281-R-J2-PDC complex spheroid viability. Briefly: Anticancer human tumor 242566-281-R-J2-PDC patient-derived pancreatic carcinoma cell line growth inhibition [RAS]. To be noted: for viability, T/C: stronger effect = lower value; for IC50: curve of compound. From the text:
RAS pathway inhibitors in Combinations in Complex Spheroids
A high-throughput screen of multi-cell type tumor spheroids was designed to identify active combinations of RAS pathway inhibitors and targeted small molecules. Complex spheroids include a stromal component modeled by human endothelial cells (HUVEC) and fibroblasts modeled by human mesenchymal stem cells (MSCs). The concentration ranges selected for each drug and investigational agent were based upon clinically achievable concentrations if the clinical Cmax of the agent was known.
Compounds. The drugs and investigational agents: abemaciclib (NSC768073), cobimetinib (NSC768068), divarasib (GDC6063, NSC841802), docetaxel (NSC628503), GDC-1971 (RLY-1971, NSC841576), gemcitabine (NSC613327), inavolisib (NSC800729), ipatasertib (NSC767898), KB-0742 (NSC834161), MRTX-1133 (NSC836407), osimertinib (NSC779217), RMC-4630 (NSC839698), RMC-6236 (NSC851965), RMC-6291 (NSC852671), Ro-3306 (NSC812927), sapanisertib (NSC764658), SN-38 (NSC673596), staurosporine (NSC755774), SY5609 (NSC837396), and tovorafenib (DAY101, NSC766906), were obtained from the National Cancer Institute (NCI) Developmental Therapeutics Program Chemical Repository. The FDA-approved anticancer drug set is available from the NCI Developmental Therapeutics Program. […] The stock solutions were prepared in dimethyl sulfoxide (DMSO, Sigma-Aldrich, St. Louis, MO, cat. D2650) at 800-fold the tested concentration and stored at -70 degrees C prior to their use. All drugs and investigational agents were tested over a range starting from a high concentration at or near the clinical Cmax and decreasing in half-log increments. If the clinical Cmax for an agent had not been determined, the highest concentration tested was 10 microM.
Cell Culture. All cells were maintained in an incubator at 37 degrees C and 5% CO2 with 95% humidity. The PDC lines were cultured according to standard operating procedures established by the NCI PDMR. All PDCs were thawed and cultured in Matrigel-coated flasks prepared with a working solution of 1X Ham's F-12 nutrient mix, without supplementation (Invitrogen, Waltham, MA, cat. 11765054), 100 U/mL penicillin-streptomycin (Invitrogen, cat. 15140122), and 2.5% Matrigel (Corning Inc., Corning, NY, cat. 354248) for the first three passages. The 362531-283-R-J2-PDC and 782815-120-R-J1-PDC lines were cultured in 6C/Colon 1B media, which includes advanced DMEM/F-12 (Thermo Fisher Scientific, cat. 12634028), 10 mM HEPES (Thermo Fisher Scientific, cat. 15630080), 1X GlutaMAX supplement (Thermo Fisher Scientific, cat. 35050061), 0.1 mg/mL primocin (InvivoGen, San Diego, CA, cat. ant-pm-2), 10% defined fetal bovine serum, heat inactivated (HyClone Laboratories Inc., Logan, UT, cat. SH30070.03HI), 50% L-WRN conditioned media (ATCC, cat. CRL-3276), 1.25 mM N-Acetyl-L-cysteine (Sigma-Aldrich, cat. A9165), 10 mM nicotinamide (Sigma-Aldrich, cat. N0636), 1X B-27 supplement (Thermo Fisher Scientific, cat. 17504044), 1X N-2 supplement (Thermo Fisher Scientific, cat. 17502048), 50 ng/mL human EGF (Thermo Fisher Scientific, cat. PHG0311), and 10 microM Y-27632 dihydrochloride (Tocris Bioscience, cat. 1254). The K12877-001-R-J1-PDC line was cultured in 6I media, which includes all 6C/Colon 1B media plus 10 ng/mL human FGF-10 (PeproTech, cat. 100-26), 1 ng/mL human FGF-2 (PeproTech, cat. 100-18B), 1 µM prostaglandin E2 (Tocris Bioscience, cat. 2296), […] hydrocortisone (Sigma-Aldrich, cat. H4001), and […] bovine insulin (Sigma-Aldrich, cat. I6634). The K86415-001-R-J1-PDC line was cultured in 6D media, which includes all 6C/Colon 1B media components minus the L-WRN conditioned media. The 485176-168-R4-J1-PDC was cultured in PANC media, which includes all 6C/Colon 1B media plus 100 ng/mL human FGF-10 (PeproTech, cat. 100-26), 500 nM SB-431542 (Selleckchem, cat. S1067), and 10 nM gastrin (Tocris Bioscience, cat. 3006). […]

Several values for one entry are separate records, joined by “and”; a condition that tells them apart may be missing. Equal values may be shown once. Bounds are passed on as bounds.
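Note: spheroids exposed to compound for 7 days before readout.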
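Throughout, for viability, T/C: 100% = DMSO vehicle control wells.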

For orientation: viability, T/C means the ratio of treated to control. By IC50 is commonly meant the midpoint of a concentration-inhibition curve. As for `CC1(O)CCCC1n1c(=O)c(C(F)F)cc2cnc(NC3CCN(S(C)(=O)=O)CC3)nc21` (stereo not drawn), the half-maximal inhibitory concentration (IC50) is > 10 µM and 7.54 µM and 8.69 µM. Also, the viability, T/C (compound 1 µM) is 106% [middle of 4 runs]. Further, under “compound 3.16 µM”, the viability, T/C was 105% and 103% (2×) and 123%.

Regarding `NC1c2ccccc2OC12CCN(c1cnc3c(N4CCCc5ncccc54)n[nH]c3n1)CC2` (stereo not drawn), the IC50 was > 10 µM and 3.3 µM and 3.4 µM. The viability, T/C (compound 1 µM) was 68.9% [middle of 4 runs]. Also, the viability, T/C (compound 10 µM) was 51.8% [middle of 4 runs].

In the case of `O=C(c1ccc(F)c(F)c1Nc1ccc(I)cc1F)N1CC(O)([C@@H]2CCCCN2)C1`, the viability, T/C is 64.1% [middle of 4 runs] (compound 0.1 µM) and 41.3% [middle of 4 runs] (compound 0.316 µM).

The values are drawn from PubChem BioAssay AID2060910 (Molecular Pharmacology Branch, DTP, NCI, 2025).
